Key:
[1] = In vivo caries evaluation, Osborne-Mendel strain 1 rat; parameters: species or system rat (Osborne-Mendel strain 1); Caries Score, Mean Incidence / Caries Score, Mean Extent: scale not given here; conditions: Table I, 90 days
Description: (§1) Standard laboratory techniques were used to complie the data presented. In each case the aldehyde was incorporated into each specimen's food in a one percent, by weight, quantity, over a period of several weeks. In all cases, caries reduction was noted.
(§2) The aldehydes tested in vivo were pyruvaldehyde, d,1-glyceraldehyde, crystalline dimer, glycolaldehyde, octanaldehyde, nonanaldehyde, decanaldehyde, undecylenic aldehyde, and lauric aldehyde. The polyaldehydes tested were dialdehyde starch, dialdehyde starch 50 percent oxidized, dialdehyde starch 90 percent oxidized, and dialdehyde galactomannan gum.
^(a) Agents were incorporated in the diet at a 1 percent level.

[2] = tested on: Lactobacillus casei ATCC 4646; experiment: Acid production inhibition by aldehydes in product vehicles, broth-tube technique; type: cell-based; conditions: 1 to 5 percent aldehyde
[3] = tested on: Mixed human oral microorganisms; experiment: as above; type: cell-based; conditions: 1 to 5 percent aldehyde
Streptococcus spp. KI-R [4] = experiment: as above; type: cell-based; conditions: 1 to 5 percent aldehyde
Streptococcus spp. KI-R [5] = experiment: Growth inhibition by aldehydes in product vehicles, pour-plate technique; type: cell-based; conditions: 1 to 5 percent aldehyde
How it was run: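 Aldehydes (1 to 5 percent by weight) were formulated into syrups, candies, mouthwash, toothpaste or toothpowder, added directly or as aqueous extracts to medium without a carbon source mixed 1:1 with filter-sterilized human saliva. Sugar came from the product or added sucrose. Growth over up to 24 hours was read by pour-plate count.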

[6] = In vivo caries evaluation, laboratory animals (summary); conditions: one percent level in diet
Description: as §1, §2

Lactobacillus casei = experiment: Acid production inhibition, broth-tube technique; conditions: single agent
Description: The data was compiled through well-known broth tube analysis techniques.
(a)Measured by broth-tube technique.

[7] = Student's test, 95 percent confidence limit
[8] = in compressed candy tablet, 2 h incubation
[9] = in compressed candy tablet, 5 h incubation
[10] = in compressed candy tablet, 24 h incubation
[11] = in dextrose syrup, 2 h incubation
[12] = in dextrose syrup, 5 h incubation
[13] = in dextrose syrup, 24 h incubation
[14] = in sucrose syrup, 2 h incubation
[15] = in sucrose syrup, 5 h incubation
[16] = in sucrose syrup, 24 h incubation
[17] = in tooth powder (aqueous extract), 2 h incubation
[18] = in tooth powder (aqueous extract), 5 h incubation
[19] = in tooth powder (aqueous extract), 24 h incubation
[20] = in toothpaste (aqueous extract), 2 h incubation
[21] = in toothpaste (aqueous extract), 5 h incubation
[22] = in toothpaste (aqueous extract), 24 h incubation

With `O=CCO` [Glycolaldehyde] the “Caries Score, Mean Incidence” value ([1]; 1 percent in diet, RCD control 23.3 (pyruvaldehyde test), 12.85 (glycolaldehyde test)) was 5.53, the “Caries Score, Mean Extent” value ([1]; 1 percent in diet, RCD control 64.8 (pyruvaldehyde test), 35.45 (glycolaldehyde test)) was 13.19 and the “Caries Extent Reduction, statistical evaluation” value [1, 7] was “Significant”. The “Caries Incidence Reduction, statistical evaluation” value [1, 7] was “Significant”, the “Acid Production Inhibition” value [2, 8] was 0 Per Cent and the “Acid Production Inhibition” value [2, 9] was 0 Per Cent. For the same compound, the “Acid Production Inhibition” value [2, 10] was 64 Per Cent, the “Acid Production Inhibition” value [2, 11] was 33 Per Cent and the “Acid Production Inhibition” value [2, 12] was 3 Per Cent. The “Acid Production Inhibition” value [2, 13] was 85 Per Cent, the “Acid Production Inhibition” value [2, 14] was 0 Per cent and the “Acid Production Inhibition” value [2, 15] was 0 Per cent. The “Acid Production Inhibition” value [2, 16] was 86 Per cent, the “Acid Production Inhibition” value [2, 17] was 0 Per cent and the “Acid Production Inhibition” value [2, 18] was 0 Per cent. The “Acid Production Inhibition” value [2, 19] was 73 Per cent, the “Acid Production Inhibition” value [2, 20] was 0 Per cent and the “Acid Production Inhibition” value [2, 21] was 0 Per cent. For the same compound, the “Acid Production Inhibition” value [2, 22] was 0 Per cent, the “Acid Production Inhibition” value [3, 8] was 0 Per Cent and the “Acid Production Inhibition” value [3, 9] was 84 Per Cent. The “Acid Production Inhibition” value [3, 10] was 72 Per Cent, the “Acid Production Inhibition” value [3, 11] was 15 Per Cent and the “Acid Production Inhibition” value [3, 12] was 87 Per Cent. The “Acid Production Inhibition” value [3, 13] was 87 Per Cent, the “Acid Production Inhibition” value ([3]; in mouthwash, 2 h incubation) was 0 Per cent and the “Acid Production Inhibition” value ([3]; in mouthwash, 5 h incubation) was 87 Per cent. For the same compound, the “Acid Production Inhibition” value ([3]; in mouthwash, 24 h incubation) was 80 Per cent, the “Acid Production Inhibition” value [3, 14] was 44 Per cent and the “Acid Production Inhibition” value [3, 15] was 90 Per cent. For the same compound, the “Acid Production Inhibition” value [3, 16] was 85 Per cent, the “Acid Production Inhibition” value [3, 17] was 0 Per cent and the “Acid Production Inhibition” value [3, 18] was 82 Per cent. For the same compound, the “Acid Production Inhibition” value [3, 19] was 77 Per cent, the “Acid Production Inhibition” value [3, 20] was 0 Per cent and the “Acid Production Inhibition” value [3, 21] was 0 Per cent. For the same compound, the “Acid Production Inhibition” value [3, 22] was 0 Per cent, the “Acid Production Inhibition” value (Streptococcus spp. KI-R [4]; [8]) was 0 Per Cent and the “Acid Production Inhibition” value (Streptococcus spp. KI-R [4]; [9]) was 0 Per Cent. For the same compound, the “Acid Production Inhibition” value (Streptococcus spp. KI-R [4]; [10]) was 73 Per Cent, the “Acid Production Inhibition” value (Streptococcus spp. KI-R [4]; [11]) was 57 Per Cent and the “Acid Production Inhibition” value (Streptococcus spp. KI-R [4]; [12]) was 81 Per Cent. The “Acid Production Inhibition” value (Streptococcus spp. KI-R [4]; [13]) was 77 Per Cent, the “Acid Production Inhibition” value (Streptococcus spp. KI-R [4]; in mouthwash, 2 h incubation) was 0 Per cent and the “Acid Production Inhibition” value (Streptococcus spp. KI-R [4]; in mouthwash, 5 h incubation) was 0 Per cent. The “Acid Production Inhibition” value (Streptococcus spp. KI-R [4]; in mouthwash, 24 h incubation) was 78 Per cent, the “Acid Production Inhibition” value (Streptococcus spp. KI-R [4]; [14]) was 19 Per cent and the “Acid Production Inhibition” value (Streptococcus spp. KI-R [4]; [15]) was 85 Per cent. For the same compound, the “Acid Production Inhibition” value (Streptococcus spp. KI-R [4]; [16]) was 84 Per cent, the “Acid Production Inhibition” value (Streptococcus spp. KI-R [4]; [17]) was 0 Per cent and the “Acid Production Inhibition” value (Streptococcus spp. KI-R [4]; [18]) was 0 Per cent. For the same compound, the “Acid Production Inhibition” value (Streptococcus spp. KI-R [4]; [19]) was 0 Per cent, the “Acid Production Inhibition” value (Streptococcus spp. KI-R [4]; [20]) was 0 Per cent and the “Acid Production Inhibition” value (Streptococcus spp. KI-R [4]; [21]) was 0 Per cent. For the same compound, the “Acid Production Inhibition” value (Streptococcus spp. KI-R [4]; [22]) was 0 Per cent, the “Growth Inhibition” value (Streptococcus spp. KI-R [5]; [8]) was 99.9 Per Cent and the “Growth Inhibition” value (Streptococcus spp. KI-R [5]; [9]) was “N.S”. The “Growth Inhibition” value (Streptococcus spp. KI-R [5]; [10]) was “N.S”, the “Growth Inhibition” value (Streptococcus spp. KI-R [5]; [11]) was 99.1 Per Cent and the “Growth Inhibition” value (Streptococcus spp. KI-R [5]; [12]) was 100 Per Cent. For the same compound, the “Growth Inhibition” value (Streptococcus spp. KI-R [5]; [13]) was 100 Per Cent, the “Growth Inhibition” value (Streptococcus spp. KI-R [5]; in mouthwash, 2 h incubation) was 99.98 Per cent and the “Growth Inhibition” value (Streptococcus spp. KI-R [5]; in mouthwash, 5 h incubation) was 100 Per cent. The “Growth Inhibition” value (Streptococcus spp. KI-R [5]; in mouthwash, 24 h incubation) was 100 Per cent, the “Growth Inhibition” value (Streptococcus spp. KI-R [5]; [14]) was 80 Per cent and the “Growth Inhibition” value (Streptococcus spp. KI-R [5]; [15]) was > 99.9 Per cent. The “Growth Inhibition” value (Streptococcus spp. KI-R [5]; [16]) was > 99.99 Per cent, the “Growth Inhibition” value (Streptococcus spp. KI-R [5]; [17]) was “N.S” and the “Growth Inhibition” value (Streptococcus spp. KI-R [5]; [18]) was 93.3 Per cent. The “Growth Inhibition” value (Streptococcus spp. KI-R [5]; [19]) was 100 Per cent, the “Growth Inhibition” value (Streptococcus spp. KI-R [5]; [20]) was 0 Per cent and the “Growth Inhibition” value (Streptococcus spp. KI-R [5]; [21]) was “N.S”. The “Growth Inhibition” value (Streptococcus spp. KI-R [5]; [22]) was “N.S”, the “Anticaries effect in laboratory animals” value [6] was “significant anticaries effects” and the “Acid Production Inhibition” value (Lactobacillus casei; 0.02 percent) was 18%. For the same compound, the “Acid Production Inhibition” value (Lactobacillus casei; 0.025 percent) was 23% and the “Acid Production Inhibition” value (Lactobacillus casei; 0.03 percent) was 27%.

Reference: patent US4048299A, “Anticaries confectionaries and oral health products” (William Wrigley, Jr. Co., priority 1970, dated 1977)
